What all share (type): functional
Test [1] has as its target Dual specificity tyrosine-phosphorylation-regulated kinase 1A (Homo sapiens, UniProt Q13627).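 Note: measured against DYRK1A as one member of a broad kinome profiling panel.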
Test [2] deals with Cyclin-dependent kinase 5 (Homo sapiens, UniProt Q00535).
Test [3] deals with T1, Apoptotic protease-activating factor 1 (Homo sapiens, UniProt O14727).
T1 sequence (O14727 whole entry): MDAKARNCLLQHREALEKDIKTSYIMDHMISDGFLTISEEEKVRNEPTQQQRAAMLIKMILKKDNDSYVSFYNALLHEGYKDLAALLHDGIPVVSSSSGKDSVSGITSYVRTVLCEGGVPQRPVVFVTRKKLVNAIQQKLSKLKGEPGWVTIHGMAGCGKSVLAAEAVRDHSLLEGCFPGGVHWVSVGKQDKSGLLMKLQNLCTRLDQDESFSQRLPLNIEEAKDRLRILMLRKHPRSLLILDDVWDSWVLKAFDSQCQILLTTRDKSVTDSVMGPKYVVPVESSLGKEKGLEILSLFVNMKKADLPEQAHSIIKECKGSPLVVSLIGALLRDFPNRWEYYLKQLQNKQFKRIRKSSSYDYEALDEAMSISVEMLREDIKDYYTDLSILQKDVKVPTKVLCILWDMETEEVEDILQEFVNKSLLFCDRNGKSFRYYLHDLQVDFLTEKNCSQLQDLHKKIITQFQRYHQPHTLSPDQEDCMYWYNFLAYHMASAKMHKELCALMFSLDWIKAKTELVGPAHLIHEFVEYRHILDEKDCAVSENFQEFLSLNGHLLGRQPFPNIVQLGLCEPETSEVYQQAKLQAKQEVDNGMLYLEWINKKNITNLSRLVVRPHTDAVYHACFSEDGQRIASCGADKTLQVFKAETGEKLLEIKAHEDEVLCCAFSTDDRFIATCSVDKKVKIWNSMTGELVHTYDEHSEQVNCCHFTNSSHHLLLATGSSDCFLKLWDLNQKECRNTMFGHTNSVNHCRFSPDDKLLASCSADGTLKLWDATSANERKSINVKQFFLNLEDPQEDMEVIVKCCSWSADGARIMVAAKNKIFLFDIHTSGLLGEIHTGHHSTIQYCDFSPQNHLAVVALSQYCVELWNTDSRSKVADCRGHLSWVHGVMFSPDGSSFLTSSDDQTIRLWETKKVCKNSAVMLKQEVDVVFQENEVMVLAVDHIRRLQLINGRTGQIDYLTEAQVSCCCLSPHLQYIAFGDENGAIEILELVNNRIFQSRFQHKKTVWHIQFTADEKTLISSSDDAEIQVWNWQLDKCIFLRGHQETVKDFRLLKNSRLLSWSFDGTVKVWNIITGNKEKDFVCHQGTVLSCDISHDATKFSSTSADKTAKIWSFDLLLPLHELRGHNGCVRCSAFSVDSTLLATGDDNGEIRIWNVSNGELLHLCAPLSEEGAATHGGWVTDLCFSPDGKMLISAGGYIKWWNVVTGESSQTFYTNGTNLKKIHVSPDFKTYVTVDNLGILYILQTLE

The text below walks through data of ChEMBL document CHEMBL1201862, “PubChem BioAssay data set” (2004).

Activity calls are given as the source filed them. Where only a bound is given, the exact number is not on record here.

Sequence of Cyclin-dependent kinase 5 (Q00535 whole entry): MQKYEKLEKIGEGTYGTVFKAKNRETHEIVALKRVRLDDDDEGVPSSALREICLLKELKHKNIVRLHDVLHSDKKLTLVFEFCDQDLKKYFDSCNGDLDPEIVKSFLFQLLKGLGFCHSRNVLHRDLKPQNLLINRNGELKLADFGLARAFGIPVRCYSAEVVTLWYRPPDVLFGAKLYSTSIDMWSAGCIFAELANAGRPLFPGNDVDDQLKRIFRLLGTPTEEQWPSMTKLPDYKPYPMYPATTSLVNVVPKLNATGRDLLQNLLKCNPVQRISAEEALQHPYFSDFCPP

By Ki is commonly meant the equilibrium dissociation constant of an inhibitor or competing ligand from its target. For the compound `Cn1cncc1C(OCc1c(-c2ccc(OC(F)(F)F)cc2)cc(C#N)c(=O)n1C)c1ccc(C#N)cc1` (stereo not drawn), the values for the inhibitory constant (Ki) in test [1] and in test [2] were 0.316 µM (active) and > 10 µM (inactive), respectively.
As usually defined, the IC50 is the concentration that gives 50% inhibition. Turning to `CCc1ccc(S(=O)(=O)/N=C2\C=C(NS(=O)(=O)c3ccccc3)C(=O)c3ccccc32)cc1`, the concentration for half-maximal inhibition (IC50) in test [3] was 13.3 µM (active).
